The term Ki denotes a dissociation constant, usually derived from enzyme kinetics or from competition with a known ligand. A lower Ki goes with tighter binding.

The results in this text go back to patent publication US10258602B2 (Ocera Therapeutics, Inc., priority 2007, dated 2019).

Where two headings read alike, the source gives them in different places.

For one series, the system named is fasted rats. Kind of series: Gastric emptying in fasted rat model, standard method E. In kind it is in vivo. Conditions: average where repeated. The method, then: E. Gastric Emptying in Fasted Rat Model
To examine the effects of compounds of the invention in a model for gastroparesis, compounds were evaluated for possible effects on gastric emptying in fasted rats. This model is used to determine the potential of compounds of the invention to promote motility in fasted rats.
• 1. Overnight-fasted rats (male, Wistar, 200 g, n=5/group) were given a meal (2 mL) of methylcellulose (2%) by intragastric gavage. The meal was labeled with phenol red (0.05%). • 2. Test articles (dosed at various concentrations, typically 1, 3, 10, 30 mg/kg), vehicle and positive control (metoclopramide, a 5-HT ligand and prokinetic agent currently prescribed for the treatment of GI disorders, including gastroparesis) were administered by oral gavage immediately after the meal (time=0). • 3. […] Total phenol red remaining in the stomach was quantified by a colorimetric method at 560 nm. • 5. A 30% or more increase in gastric emptying (as compared to the vehicle control) was considered significant. • 6. One-way ANOVA, Dunnet's post-hoc statistical test was applied Results
The effects of representative compounds of the invention in the rat gastric emptying model described in standard method E are provided in the following table. In cases where an experiment was conducted multiple times, the average of the individual results is presented.

Series [1] deals with human growth hormone secretagogue receptor (hGHS-R1a) (Homo sapiens, UniProt Q92847). Kind of series: Competitive radioligand binding assay (ghrelin receptor), standard method A. From the text:
A competitive binding assay at the human growth hormone secretagogue receptor (hGHS-R1a) can be carried out analogously to assays described in the literature. (Bednarek, M. A.; et al. J. Med. Chem. 2000, 43, 4370-4376; Palucki, B. L.; et al. Bioorg. Med. Chem. Lett. […], 11, 1955-1957.) See also U.S. patent application Ser. Nos. 11/149,512 and 11/149,731. Binding activity at the gherlin receptor for representative compounds of the present invention is shown in the Examples below.

Series [2] can be described thus: Pharmacokinetic analysis (oral bioavailability, elimination half-life) in the rat. The note with it: oral administration, 8 mg/kg dose, HPLC-MS. Format: in vivo. From the text:
D. Pharmacokinetic Analysis of Representative Compounds of the Invention
The pharmacokinetic behavior of compound of the invention can be ascertained by methods well known to those skilled in the art. (Wilkinson, G. R. “Pharmacokinetics: The Dynamics of Drug Absorption, Distribution, and Elimination” in Goodman & Gilman's The Pharmacological Basis of Therapeutics, Tenth Edition, Hardman, J. G.; Limbird, L. E., Eds., McGraw Hill, Columbus, Ohio, 2001, Chapter 1.) The following method was used to investigate the pharmacokinetic parameters (elimination half-life, total plasma clearance, etc.) for intravenous, subcutaneous and oral administration of compounds of the present invention. See also U.S. patent application Ser. No. 11/149,512 and Ser. No. 11/149,731 and Intl. Pat. Appl. No. PCT/US2007/017905.
The table below presents oral bioavailability and elimination half-life data in the rat for representative compounds of the present invention. The parameters were determined by HPLC-MS after oral administration of an 8 mg/kg dose of the compound, except for compound 822 where a 2 mg/kg dose was used.

Where [3] appears, read: binding activity at the human ghrelin receptor, standard method A.

human growth hormone secretagogue receptor (hGHS-R1a), sequence (Q92847 whole entry): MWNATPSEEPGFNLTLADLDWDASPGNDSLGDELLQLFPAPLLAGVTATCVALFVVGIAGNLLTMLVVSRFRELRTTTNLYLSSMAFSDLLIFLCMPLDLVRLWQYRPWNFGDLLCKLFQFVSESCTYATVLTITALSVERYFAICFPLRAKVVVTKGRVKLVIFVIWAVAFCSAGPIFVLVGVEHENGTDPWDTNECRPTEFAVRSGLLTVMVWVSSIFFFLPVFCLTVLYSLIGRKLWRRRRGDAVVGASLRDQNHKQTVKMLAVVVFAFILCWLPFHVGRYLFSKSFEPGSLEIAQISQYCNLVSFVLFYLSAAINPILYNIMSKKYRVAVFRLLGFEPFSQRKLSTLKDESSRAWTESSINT

On to `CCN(CC)CCNC(=O)c1cc(Cl)c(N)cc1OC` [metoclopramide], for which the “Percent Increase in Gastric Emptying After Oral Administration” value (shortened to “Percent Increase”) in the series on fasted rats (dose 30 mg/kg) is on record as 35%.
Consider `C[C@@H]1CN[C@@H](C2CC2)C(=O)N(C)[C@H](C)C(=O)N[C@H](Cc2ccc(F)cc2)C(=O)NCCCc2cccc(F)c2O1` [Compound 935], for which the Ki in series [1] (setting [3]) was ≤ 0.1 µM. Besides, in series [2], the “Elimination Half-life (t1/2, rat, min)” value was 42 min and the “Oral Bioavailability (rat, % F)” value is 11 % F.
Take `CC1CNC(C2CC2)C(=O)N(C)C(C)C(=O)NC(CC2CCCCC2)C(=O)NCCCC2CCCCC2O1` (mixture of isomers) [Compound 831]: the Ki in series [1] (setting [3]) is ≤ 0.001 µM. Moreover, the “Percent Increase” value in the series with fasted rats (dose 3 mg/kg) worked out at 32%. Also, in series [2], the “Elimination Half-life (t1/2, rat, min)” value is recorded as 120 min and the “Oral Bioavailability (rat, % F)” value is 15 % F.
For `CC(C)C[C@H]1NC(=O)[C@@H](C)N(C)C(=O)[C@H](C2CC2)NC[C@@H](C)Oc2cccnc2CCCNC1=O` [Compound 999], in series [2], the “Elimination Half-life (t1/2, rat, min)” value is 122 min and the “Oral Bioavailability (rat, % F)” value stood at 9 % F.
Turning to `CC(C)C[C@H]1NC(=O)[C@@H](C)N(C)C(=O)[C@H](C2CC2)NC[C@@H](C)Oc2c(F)cccc2CCCNC1=O` [Compound 979], in series [1] (setting [3]), the Ki was ≤ 0.1 µM. In series [2], the “Elimination Half-life (t1/2, rat, min)” value amounted to 34 min and the “Oral Bioavailability (rat, % F)” value was 11 % F.
For `C[C@@H]1CN[C@@H](C2CC2)C(=O)N(C)[C@H](C)C(=O)N[C@H](Cc2ccc(F)cc2)C(=O)NCCCc2ncccc2O1` [Compound 1027] the same measures were ≤ 0.1 µM, 46 min and 6 % F.
As to `C[C@@H]1CN[C@@H](C2CC2)C(=O)N(C)[C@H](C)C(=O)N[C@H](Cc2ccc(F)cc2)C(=O)NCCCc2ccc(F)cc2O1` [Compound 854], the Ki in series [1] (setting [3]) is ≤ 0.1 µM. Also, in series [2], the “Elimination Half-life (t1/2, rat, min)” value is reported as 223 min and the “Oral Bioavailability (rat, % F)” value turned out to be 22 % F.
Consider `C[C@@H]1CN[C@@H](C2CC2)C(=O)N(C)[C@H](C)C(=O)N[C@H](Cc2ccc(F)cc2)C(=O)N[C@@H](C)CCc2ccccc2O1` [Compound 1011], for which the inhibition constant Ki in series [1] (setting [3]) is ≤ 0.01 µM. In series [2], the “Elimination Half-life (t1/2, rat, min)” value is 268 min and the “Oral Bioavailability (rat, % F)” value is recorded as 22 % F.
Consider `CC(C)C[C@H]1NC(=O)[C@@H](C)N(C)C(=O)[C@H](C2CC2)NCCOc2c(F)cccc2CCCNC1=O` [Compound 813], for which the Ki in series [1] (setting [3]) was ≤ 0.01 µM. Besides, the “Percent Increase” value with fasted rats (dose 3 mg/kg) was 11%. In addition, in series [2], the “Elimination Half-life (t1/2, rat, min)” value amounted to 31 min and the “Oral Bioavailability (rat, % F)” value is given as 4 % F.
On to `C[C@@H]1CN[C@@H](C2CC2)C(=O)N(C)[C@H](C)C(=O)N[C@H](Cc2ccc(O)cc2)C(=O)N(C)CCCc2ccccc2O1` [Compound 1069], for which the Ki in series [1] (setting [3]) was ≤ 0.1 µM. Also, in series [2], the “Elimination Half-life (t1/2, rat, min)” value came out at 128 min and the “Oral Bioavailability (rat, % F)” value is 32 % F.
Turning to `C[C@@H]1CN[C@@H](C2CC2)C(=O)N(C)[C@H](C)C(=O)N[C@H](Cc2ccc(O)cc2)C(=O)NCCCc2ccccc2O1` [Compound 989], the Ki in series [1] (setting [3]) was ≤ 0.1 µM. In addition, in series [2], the “Elimination Half-life (t1/2, rat, min)” value is given as 138 min and the “Oral Bioavailability (rat, % F)” value was found to be 7 % F.
Take `C[C@@H]1C(=O)N[C@H](Cc2ccc(O)cc2)C(=O)NCCCc2ccc(F)c(F)c2OCCN[C@@H](C2CC2)C(=O)N1C` [Compound 818]: in series [1] (setting [3]), the Ki is ≤ 0.01 µM. For the same compound, the “Percent Increase” value with fasted rats (dose 3 mg/kg) was found to be 11%.
`C[C@@H]1CN[C@@H](C2CC2)C(=O)N(C)[C@H](C)C(=O)N[C@H](Cc2ccccc2)C(=O)NCCCc2ncccc2O1` [Compound 1028]: the Ki in series [1] (setting [3]) was ≤ 0.1 µM.
Same read-out and setting: with `CC(C)C[C@H]1NC(=O)[C@@H](C)N(C)C(=O)[C@H](C2CC2)NCCOc2cccnc2CCCNC1=O` [Compound 986] the figure was > 0.5 µM; with `CC1CNC(C2CC2)C(=O)N(C)C(C)C(=O)NC(Cc2ccccc2O)C(=O)NCCCC2CCCCC2O1` (mixture of isomers) [Compound 1115], ≤ 0.5 µM.
For the compound `C[C@@H]1CN[C@@H](C2CC2)C(=O)N(C)[C@H](C)C(=O)N[C@H](Cc2cc(F)c(F)c(F)c2)C(=O)NCCCc2ccccc2O1` [Compound 1041], the Ki in series [1] (setting [3]) was ≤ 0.1 µM.
In the case of `CC(C)C[C@H]1NC(=O)[C@@H](C)N(C)C(=O)[C@H](C2CC2)NC[C@@H](C)Oc2cccnc2CC[C@H](C)NC1=O` [Compound 1088], the Ki in series [1] (setting [3]) is ≤ 0.5 µM.
Turning to `C[C@@H]1CN[C@@H](C2CC2)C(=O)N(C)[C@H](C)C(=O)N[C@H](C(C)(C)C)C(=O)NCCCc2ccccc2O1` [Compound 1014], the Ki in series [1] (setting [3]) is ≤ 0.5 µM.
On the same count and under the same terms, to `C[C@@H]1CN[C@@H](C2CC2)C(=O)N(C)[C@H](C)C(=O)N[C@H](Cc2ccc(O)c(F)c2)C(=O)NCCCc2ccccc2O1` [Compound 1104] belongs ≤ 0.1 µM; to `C[C@@H]1C(=O)N[C@H](Cc2ccc(O)cc2)C(=O)NCCCc2cccc3c2O[C@@H](CC3)CN[C@@H](C2CC2)C(=O)N1C` [Compound 1024], ≤ 0.1 µM.
With `CCC(C)[C@@H]1NCC(C)(C)Oc2ccccc2CCCNC(=O)[C@@H](Cc2ccccc2)NC(=O)[C@@H](C)N(C)C1=O` (stereo partly shown) [Compound 923], the Ki in series [1] is ≤ 0.1 µM.
Turning to `C[C@@H]1CN[C@@H](C2CC2)C(=O)N(C)[C@H](C)C(=O)N[C@H]([C@H](C)O)C(=O)NCCCc2ccccc2O1` [Compound 1050], in series [1] (setting [3]), the Ki was > 0.5 µM.
Still for that read-out and setting: with `C[C@@H]1CN[C@@H](C2CC2)C(=O)N(C)[C@H](C)C(=O)N[C@H](Cc2ccncc2)C(=O)NCCCc2ccccc2O1` [Compound 977] the figure was ≤ 0.5 µM; with `CCC[C@@H]1NC[C@@H](C)Oc2ccccc2CCCNC(=O)[C@@H](Cc2ccccc2)NC(=O)[C@@H](C)N(C)C1=O` [Compound 858], ≤ 0.5 µM; with `C[C@@H]1CN[C@@H](C2CC2)C(=O)N(C)[C@H](C)C(=O)N[C@H](Cc2ccc(O)cc2)C(=O)NCCCc2ncccc2O1` [Compound 1023], ≤ 0.1 µM.
With `C[C@@H]1CN[C@@H](C2CC2)C(=O)N(C)[C@H](C)C(=O)N[C@H](C(C)(C)c2ccc(F)cc2)C(=O)NCCCc2ccccc2O1` [Compound 1035], in series [1] (setting [3]), the Ki was ≤ 0.1 µM.
As to `C[C@@H]1CN[C@@H](C2CC2)C(=O)N(C)[C@H](C)C(=O)N[C@H](Cc2ccc(Cl)cc2)C(=O)NCCCc2ccccc2O1` [Compound 862], the Ki in series [1] (setting [3]) was ≤ 0.01 µM. Moreover, in series [2], the “Elimination Half-life (t1/2, rat, min)” value is recorded as 77 min and the “Oral Bioavailability (rat, % F)” value stood at 22 % F.
Turning to `C[C@@H]1CN[C@@H](C2CC2)C(=O)N(C)[C@H](C)C(=O)N[C@H](Cc2ccc(Cl)cc2)C(=O)NCCCc2cc(F)c(F)cc2O1` [Compound 951], the Ki in series [1] (setting [3]) is ≤ 0.5 µM.
Consider `Cc1ccc(C[C@H]2NC(=O)[C@@H](C)N(C)C(=O)[C@H](C3CC3)NCCOc3ccccc3CCCNC2=O)cc1` [Compound 860], for which the Ki in series [1] (setting [3]) was ≤ 0.01 µM.
With `CC(C)C[C@H]1NC(=O)[C@@H](C)N(C)C(=O)[C@H](C2CC2)NC[C@@H](C)Oc2c(Cl)cccc2CCCNC1=O` [Compound 1006], the Ki in series [1] (setting [3]) is ≤ 0.5 µM.
Same read-out and setting: to `CC(=O)Oc1c(Br)cc(C[C@H]2NC(=O)[C@@H](C)N(C)C(=O)[C@H](C3CC3)NC[C@@H](C)Oc3ccccc3CCCNC2=O)cc1Br` [Compound 1066] belongs ≤ 0.1 µM.
Same read-out and setting: with `C[C@@H]1C(=O)N[C@H](Cc2ccc(O)cc2)C(=O)NCCCc2cccc3c2O[C@H](CC3)CN[C@@H](C2CCCCC2)C(=O)N1C` [Compound 1105] the figure was ≤ 0.001 µM; with `C[C@@H]1CN[C@@H](C2CC2)C(=O)N(C)[C@H](C)C(=O)N[C@H](Cc2ccc(Cl)cc2)C(=O)NCCCc2c(F)cccc2O1` [Compound 938], ≤ 0.1 µM.
As to `C[C@@H]1CN[C@@H](C2CC2)C(=O)N(C)[C@H](C)C(=O)N[C@H](Cc2cccc(O)c2)C(=O)NCCCc2ncccc2O1` [Compound 1079], the Ki in series [1] (setting [3]) is ≤ 0.1 µM.
